This note sets out measurements from ChEMBL document CHEMBL4251632, “Synthesis and antidepressant-like activity of novel aralkyl piperazine derivatives targeting SSRI/5-HT1A/5-HT7” (Eur J Med Chem, 2018).

Data set [1] is described as follows: Apparent volume of distribution during terminal phase in Sprague-Dawley rat at 2 mg/kg, po administered as single dose by LC-MS/MS analysis. Type of data set: ADME, organism-based. Conditions: in vivo, read-out: Vz/F.
Data set [2] addresses Sodium-dependent serotonin transporter (Rattus norvegicus, UniProt P31652). The experiment in a line: Inhibition of [3H]serotonin reuptake in rat brain synaptosomes SERT after 15 mins by TopCount scintillation counting method. Type of data set: subcellular.
The target in data set [3] is Sodium-dependent serotonin transporter (Rattus norvegicus) (UniProt P31652). Description: Inhibition of [3H]serotonin reuptake in rat brain synaptosomes SERT at 10 uM after 15 mins by TopCount scintillation counting method relative to control. Type of data set: subcellular.
Chain of Sodium-dependent serotonin transporter (Rattus norvegicus) (P31652 whole entry): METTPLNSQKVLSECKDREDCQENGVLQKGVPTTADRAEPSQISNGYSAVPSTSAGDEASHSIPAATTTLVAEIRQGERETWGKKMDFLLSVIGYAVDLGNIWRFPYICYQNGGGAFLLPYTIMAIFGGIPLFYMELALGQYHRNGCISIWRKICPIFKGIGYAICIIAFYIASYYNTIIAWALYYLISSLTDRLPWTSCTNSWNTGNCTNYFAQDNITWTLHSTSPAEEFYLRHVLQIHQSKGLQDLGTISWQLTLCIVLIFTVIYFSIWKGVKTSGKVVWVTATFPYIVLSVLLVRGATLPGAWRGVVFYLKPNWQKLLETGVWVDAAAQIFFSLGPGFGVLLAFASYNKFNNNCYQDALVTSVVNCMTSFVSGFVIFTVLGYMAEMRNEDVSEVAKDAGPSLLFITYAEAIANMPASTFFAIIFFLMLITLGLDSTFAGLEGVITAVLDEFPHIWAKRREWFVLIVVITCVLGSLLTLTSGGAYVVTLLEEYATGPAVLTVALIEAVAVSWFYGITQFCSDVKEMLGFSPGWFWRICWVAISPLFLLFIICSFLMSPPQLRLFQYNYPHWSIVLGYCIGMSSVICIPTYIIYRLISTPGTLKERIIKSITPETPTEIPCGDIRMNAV
The nature of data set [4]: AUC (0 to infinity) in Sprague-Dawley rat at 2 mg/kg, po administered as single dose by LC-MS/MS analysis. It counts as ADME, organism-based. Also on record: dose 2 mg/kg, time infinity, route oral. Conditions: in vivo.
Data set [5] can be described thus: Plasma concentration in Sprague-Dawley rat at 0.5 mg/kg, iv administered as single dose measured after 6 hrs by LC-MS/MS analysis. It counts as ADME, organism-based.
Data set [6] is described as follows: Plasma concentration in Sprague-Dawley rat at 2 mg/kg, po administered as single dose measured after 1 hr by LC-MS/MS analysis. Type of data set: ADME, organism-based.
Data set [7] has as its target T1, 5-hydroxytryptamine receptor 1A (Homo sapiens) (UniProt P08908).
T1 sequence (whole entry): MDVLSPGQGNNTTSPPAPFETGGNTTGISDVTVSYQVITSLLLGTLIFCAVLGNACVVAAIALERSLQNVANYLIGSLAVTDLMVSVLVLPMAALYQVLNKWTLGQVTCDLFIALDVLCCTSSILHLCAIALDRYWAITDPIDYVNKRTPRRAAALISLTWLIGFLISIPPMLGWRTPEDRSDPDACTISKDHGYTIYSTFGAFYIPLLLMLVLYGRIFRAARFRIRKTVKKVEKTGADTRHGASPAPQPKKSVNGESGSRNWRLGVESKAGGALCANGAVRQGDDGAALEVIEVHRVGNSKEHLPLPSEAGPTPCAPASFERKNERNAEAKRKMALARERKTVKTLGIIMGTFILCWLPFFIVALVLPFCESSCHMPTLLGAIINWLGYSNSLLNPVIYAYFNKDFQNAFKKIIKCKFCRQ
The experiment in a line: Displacement of [3H]8-OH-DPAT from recombinant human 5-HT1A receptor expressed in HEK293 cell membranes at 10 uM after 60 mins by TopCount scintillation counting method relative to control. For orientation: Loss of bound radioactivity is the signal in a displacement assay; it reports binding, not function.

Another data set can be described thus: in vitro. The note with it: rat, liver microsomes.
Data set [8] is described as follows: Plasma concentration in Sprague-Dawley rat at 2 mg/kg, po administered as single dose measured after 15 mins by LC-MS/MS analysis. It counts as ADME, organism-based.
Data set [9] is described as follows: Tmax in Sprague-Dawley rat at 2 mg/kg, po administered as single dose by LC-MS/MS analysis. It counts as ADME, organism-based. Conditions: in vivo.
For data set [10], the system named is Mus musculus. Description: Antidepressant-like activity in mouse assessed as reduction in immobility time at 20 mg/kg/day, po once daily for 7 days measured for last 4 mins of 6 mins test at 1 hr post last dose by forced swim test relative to control. It counts as functional. Details: scale not given: the % may be the effect or the level left.
Data set [11] relates to Mus musculus. The experiment in a line: Antidepressant-like activity in mouse assessed as reduction in immobility time at 10 mg/kg/day, po administered once daily for 7 days measured for 5 mins at 1 hr post last dose by tail suspension test relative to control. Details: scale not given: the % may be the effect or the level left. It counts as functional.
Data set [12] can be described thus: MRT (0 to t) in Sprague-Dawley rat at 2 mg/kg, po administered as single dose by LC-MS/MS analysis. It counts as ADME, organism-based. The note with it: in vivo.
The target in data set [13] is T2, 5-hydroxytryptamine receptor 1A (Homo sapiens, UniProt P08908).
T2 sequence (P08908 whole entry): T1 sequence (whole entry)
Description: Displacement of [3H]8-OH-DPAT from recombinant human 5-HT1A receptor expressed in HEK293 cell membranes after 60 mins by TopCount scintillation counting method.

The nature of data set [14]: Plasma concentration in Sprague-Dawley rat at 0.5 mg/kg, iv administered as single dose measured after 15 mins by LC-MS/MS analysis. It counts as ADME, organism-based.
The nature of data set [15]: Oral bioavailability in Sprague-Dawley rat at 2 mg/kg administered as single dose by LC-MS/MS analysis. Type of data set: ADME, organism-based. Conditions: in vivo.
The nature of data set [16]: Plasma concentration in Sprague-Dawley rat at 2 mg/kg, po administered as single dose measured after 9 hrs by LC-MS/MS analysis. Type of data set: ADME, organism-based.
Data set [17] can be described thus: AUC (0 to infinity) in Sprague-Dawley rat at 0.5 mg/kg, iv administered as single dose by LC-MS/MS analysis. Details: dose 0.5 mg/kg, time infinity, route intravenous. The note with it: in vivo. It counts as ADME, organism-based.
Data set [18] can be described thus: AUC (0 to t) in Sprague-Dawley rat at 2 mg/kg, po administered as single dose by LC-MS/MS analysis. It counts as ADME, organism-based. The note with it: in vivo.
Data set [19] has as its system Mus musculus. The experiment in a line: Antidepressant-like activity in mouse assessed as reduction in immobility time at 10 mg/kg/day, po once daily for 7 days measured for last 4 mins of 6 mins test at 1 hr post last dose by forced swim test relative to control. Type of data set: functional. Details: scale not given: the % may be the effect or the level left.
Data set [20] concerns Mus musculus. Description: Antidepressant-like activity in po dosed mouse assessed as reduction in immobility time administered once daily for 7 days measured for 5 mins at 1 hr post last dose by tail suspension test. Type of data set: functional, organism-based.
Data set [21] in a line: Apparent clearance during terminal phase in Sprague-Dawley rat at 2 mg/kg, po administered as single dose by LC-MS/MS analysis. The note with it: in vivo, read-out: CLz/F (converted). Type of data set: ADME, organism-based.
Data set [22] in a line: Plasma concentration in Sprague-Dawley rat at 2 mg/kg, po administered as single dose measured after 2 hrs by LC-MS/MS analysis. Type of data set: ADME, organism-based.
Data set [23] in a line: Plasma concentration in Sprague-Dawley rat at 2 mg/kg, po administered as single dose measured after 4 hrs by LC-MS/MS analysis. Type of data set: ADME, organism-based.

Chain of Sodium-dependent serotonin transporter (P31652 whole entry): as the sequence (P31652 whole entry) above
Description for in vitro: Half life in rat liver microsomes at 1 uM in presence of NADPH by LC-MS/MS analysis

The IC50 is the midpoint of a concentration-inhibition curve. A word on the inhibition: it is the share of the control response that was lost under treatment. What is called AUC(0-inf) is the area under the concentration-time curve extrapolated to infinity. A word on the half-life: it is how long it takes for the measured level to halve. Usually Tmax stands for the time from dosing to the highest level. In general, MRT last refers to the average time that molecules of a dose stay in the body. As usually defined, the Ki is the equilibrium dissociation constant of an inhibitor or competing ligand from its target. As usually defined, the bioavailability is the share of a dose that reaches the circulation, judged against a reference dose that is usually intravenous. For orientation: AUC(0-t) means the area under the concentration-time curve up to a stated or last time point. With `Fc1ccc(N2CCN(CCCc3c[nH]c4ccc(F)cc34)CC2)c(-c2ccccc2)c1`, the Vd/F in [1] was 17.1 L/kg. In addition, inhibition in data set [2] was half-maximal at 25 nM (IC50). Besides, the inhibition in [3] and in data set [7] was over 90% each time. Also, the AUC(0-inf) in [4] came out at 898 ng·h/mL; in data set [17] it was 328 ng·h/mL. For the same molecule, the concentration at 6 h in data set [5] is 12.4 ng/mL. The same molecule registered a concentration at 1 h in data set [6] of 72.8 ng/mL. Also, in the data set “in vitro”, the half-life at 1 µM was 0.775 h. Further, the concentration at […] worked out at 20.4 ng/mL in data set [8] and 149 ng/mL in data set [14]. In addition, the Tmax in data set [9] turned out to be 1.7 h. The Activity in the data set on Mus musculus [10] was 27%; with Mus musculus [11], 18%; in the data set on Mus musculus [19] it was 24%; with Mus musculus [20] it was “Dose-dependent effect”. This molecule also registered an MRT last in [12] of 4.3 h. For the same molecule, in [13], the inhibitory constant (Ki) turned out to be 28 nM. In data set [15], this molecule gave a bioavailability of 68.5%. Besides, in [16], the concentration at 9 h was determined as 34.9 ng/mL. Moreover, in data set [18], the area under the curve AUC(0-t) turned out to be 536 ng·h/mL. Further, in data set [21], the CL/F is 40 mL/min/kg. In addition, in [22], the concentration at 2 h came to 76.7 ng/mL. In addition, the concentration at 4 h in data set [23] stood at 60.7 ng/mL.
